Patent US9763966B2, “Fluocinolone formulations in a biodegradable polymer carrier” (Warsaw Orthopedic, Inc., priority 2008, dated 2017)

Experiments:
[1] = test system: chronic constriction injury (CCI) model of neuropathic pain; experiment: 2-month chronic constriction injury (CCI) model: mechanical threshold and thermal paw withdrawal latency; format: in vivo; details: compared with the fluocinolone implants
Method: A 2-month chronic constriction injury (CCI) model of neuropathic pain was used to evaluate different formulations of a corticosteroid, fluocinolone, encapsulated in bioerodable polymers compared to fluocinolone given subcutaneously (SC). Different formulations as provided in Table B below were evaluated for reducing pain-associated behaviors: Thermal paw withdrawal latency was evaluated at baseline 7, 14, 21, 28, 35, 42, 49, and 56 days post-operatively, while mechanical threshold was evaluated at 8, 15, 22, 29, 36, 43, 50, and 57 days post-operatively.
There were seven groups of animals tested. […]
Mechanical allodynia was measured using von Frey monofilaments (Stoelting, Wood Dale, Ill.) with varying stiffness (2.0-15.0 g) on Days 1, 8, 15, 22, 29, 36, 43, 50 and 57 as described previously (see FIGS. 5-6). […] The 50% paw withdrawal threshold response was determined by a sequential increasing and/or decreasing of the stimulus strength (the “up-down method” of Dixon). […] The 50% paw withdrawal threshold was calculated using the formula: 10 (Xf+kd)/10,000, where Xf is the final von Frey filament used (log units), k is a value that analyzes the response pattern (taken from the table published by Chaplan et al.), and d is the mean difference between stimuli (log units). The mean and standard error of the mean (SEM) were determined for each treatment group.

inflammatory response = experiment: Implant-site observation: resorption of foreign material and encapsulation (FIGS. 9 and 10); format: in vivo; details: picture
Text: FIG. 10 is a picture of fluocinolone implants 20 wt % 85/15 PLGA+10% mPEG and 1% wt fluocinolone 100 DL 7E+5% PEG/7% 50/50 PLGA 7A. The foreign and inflammatory material was not resorbed due to lack of inflammatory response mediated by fluocinolone implants.

CC1=C(CC(=O)O)c2cc(F)ccc2/C1=C\c1ccc([S+](C)[O-])cc1 (stereo not drawn) [sulindac]
pain control response [1]: very similar pain control response | encapsulation of implant (inflammatory response): did not prevent encapsulation | resorption of foreign and inflammatory material (sutures) (inflammatory response): resorbed
